In patent publication US20240084258A1, “METHOD FOR PREPARING BROWN ADIPOCYTE” (KYOTO PREFECTURAL PUBLIC UNIVERSITY CORPORATION, priority 2015, published 2024):
Where two headings read alike, the source gives them in different places.

How the values were obtained:
[1] = tested on: human dermal fibroblasts (HDFs)
Experimental: (§1) Human normal skin-derived fibroblast (human dermal fibroblasts; HDFs) were suspended in a normal medium (10% FBS-added Dulbecco's modified minimum essential medium; DMEM). This was seeded in a 12-well plate at a concentration of 3×10^4 cells/well and culturing was started at 5% CO2/95% humidified air, 37° C. The next day (day 0), the culture supernatant was removed by suction and a normal medium (group 1), an adipocyte induction medium (group 2), or an adipocyte induction medium (groups 3-8) added with ALK5 inhibitor II at concentration of 4 μM was added at 1 mL/well.
The adipocyte induction medium is DMEM added with 1 nM T3, 1 μM Rosiglitazone, 0.5 mM isobutylmethylxanthine (IBMX), 0.5 μM dexamethason, 1 μg/mL Insulin and 10% FBS.
Once every 2 days, the medium was substituted by a fresh one. In groups 3-7, the cells were cultured in an adipocyte induction medium added with ALK5 inhibitor II only in the periods of Days 0-2, Days 0-4, Days 0-6, Days 0-8 and Days 0-10, respectively, and thereafter cultured in an adipocyte induction medium without addition of ALK5 inhibitor II. In group 8, the cells were cultured in an adipocyte induction medium added with ALK5 inhibitor II throughout the whole period of Days 0-14. On day 14, the medium was removed from each well by suction, the cells were washed with PBS(−) and total RNA was extracted from the cells by using RNA easy Mini Kit manufactured by Qiagen. cDNA was synthesized from the RNA by using Rever Tra Ace qPCR RT Master Mix. The cDNA was admixed with Real-time PCR Master Mix, primers specific to UCP1 gene or β actin gene and Taqman probe. qRT-PCR was performed using AB7300 Real-time PCR system. The mRNA level of UCP1 gene was quantified as a ratio to β actin gene mRNA and calculated with the value of fibroblast cultured in the normal medium as 1.

[2] = tested on: human dermal fibroblasts (HDFs); remark: listed apart in the source
Experimental: as §1
Once every 2 days, the medium was substituted by a fresh one. In groups 3-7, the cells were cultured in an adipocyte induction medium added with ALK5 inhibitor II only in the periods of Days 0-2, Days 0-4, Days 0-6, Days 0-8 and Days 0-10, respectively, and thereafter cultured in an adipocyte induction medium without addition of ALK5 inhibitor II. In group 8, the cells were cultured in an adipocyte induction medium added with ALK5 inhibitor II throughout the whole period of Days 0-14.

[3] = tested on: human dermal fibroblasts (HDFs); experiment: UCP1, CIDEA and KCNK3 gene mRNA by real time RT-PCR (Example 17); format: cell-based
Experimental: (Day −1). In the control (Ctrl) group, the culture supernatant of the next day (Day 0) was removed by suction and the cells were cultured in a normal medium up to day 14 while substituting the medium with a fresh one once every other day. In groups other than the control (Ctrl) group, the culture supernatant was removed by suction on day 0, and an adipocyte induction medium added with any of ALK5 inhibitor II (4 μM) and LY2157299 (8 μM) was added at 1 mL/well.
Thereafter, the cells were cultured in an adipocyte induction medium free of any compound of ALK5 inhibitor II and LY215799 during Day 9-Day 14. On day 14, the medium was removed by suction from the wells of all groups, and the cells were washed with PBS(−).

[4] = tested on: human dermal fibroblasts (HDFs); experiment: UCP1 gene mRNA by real time RT-PCR (Example 2); format: cell-based; conditions: induction medium + T3 + Rosiglitazone, D4476 2 μM, FSK 2 μM, PD0325901 1 μM, SB431542 2 μM, day 14, FIG. 2
Experimental: This was seeded in a 24-well plate at a concentration of 1×10^4 cells/well (day 0), and culturing was started at 5% CO2/95% humid air, 37° C. The next day, the culture supernatant was removed by suction and, as described in the Figure, a normal medium, an adipocyte induction medium, or an adipocyte induction medium added with each low-molecular compound and the like was added at 500 μL/well. […] The concentrations of the additives are as follows: • T3: 1 nM • Rosiglitazone: 1 μM • D4476: 2 μM • Pifithrin alpha [p53 inhibitor]: 5 μM • Forskolin (FSK): 2 μM • PD0325901: 1 μM • SB431542: 2 μM. The culture medium was substituted by a fresh one every 3-4 days and the cells were cultured up to day 14.

[5] = tested on: human dermal fibroblasts (HDFs); experiment: UCP1 mRNA response of induced cells to Isoproterenol or FSK stimulation (Example 3); format: cell-based; conditions: cells cultured 14 days in induction medium with D4476 in addition to T3 and Rosiglitazone; FIG. 3
Experimental: 10 μM Isoproterenol or FSK was added to these cells as described in the Figure. As a control, a group free of the addition was also prepared. After 5 hr, the culture medium was removed from each well by suction, the cells were washed with PBS(−) and total RNA was extracted from the cells with ISOGEN II. qRT-PCR was performed in the same manner as in Example 2. The mRNA level of UCP1 gene was quantified as a ratio to […] gene mRNA and calculated with the value of fibroblast cultured in the normal medium as 1.

[6] = tested on: human dermal fibroblasts (HDFs); experiment: BODIPY, UCP1 and DAPI co-staining (Example 10); format: cell-based; conditions: D4476 2 μM in addition to T3 and Rosiglitazone, day 14, FIG. 10A, 10B
Experimental: The next day, the culture supernatant was removed by suction and, as described in the Figure, a normal medium, an adipocyte induction medium, or an adipocyte induction medium added with each low-molecular-weight compound and the like was added at 500 μL/well.
The adipocyte induction medium is a 10% FBS-added DMEM+MDI medium (10% FBS-added DMEM supplemented with 0.5 mM isobutylmethylxanthine (IBMX), 0.5 μM dexamethason and 1 μg/mL Insulin).
The concentrations of the additives are as follows: • T3: 1 nM • Rosiglitazone: 1 μM • D4476: 2 μM.
The culture medium was substituted by a fresh one every 3-4 days and the cells were cultured up to day 14.
The cells were fixed with 4% para-formaldehyde and washed with PBS(−).
Then, the cells were reacted in BODIPY 493/503 (Invitrogen)/PBS solution at room temperature for 5 min, washed 3 times with PBS and stained with DAPI. The cells were photographed at a magnification of 200 with a fluorescence microscope.

[7] = ALK5 inhibitor II 4 μM or LY2157299 8 μM up to Day 9, day 14, FIG. 17

Row | SMILES | UCP1 gene expression (conversion to brown adipocytes) ([1]; HDFs, ALK5 inhibitor II 4 μM in adipocyte induction medium, day 14, FIG. 13) | UCP1 gene expression ([1]; group 6: ALK5 inhibitor II 4 μM for days 0-8, then 6 days without it) | UCP1 gene expression ([1]; groups 3-5, 7, 8: ALK5 inhibitor II 4 μM for Days 0-2, 0-4, 0-6, 0-10 or 0-14) | staining intensity of UCP1 protein and staining positive cells ([2]; #6: ALK5 inhibitor II 4 μM for days 0-8, then 6 days without it) | UCP1 protein expression by immunostaining (conversion to brown adipocytes) ([2]; HDFs, ALK5 inhibitor II 4 μM in adipocyte induction medium, day 14, FIG. 14A, 14B) | UCP1 protein expression ([2]; other conditions cultured in the presence of ALK5 inhibitor II (in FIG. #2-5, 7, 8)) | CIDEA gene expression [3, 7] | KCNK3 gene expression [3, 7] | UCP1 gene expression [3, 7] | strength of induction of UCP1 gene expression, compared with LY2157299 ([3]; ALK5 inhibitor II 4 μM versus LY2157299 8 μM, day 14) | mRNA expression of UCP1 gene (conversion to brown adipocytes) [4] | responsiveness of induced cells to Isoproterenol or FSK stimuli [5] | lipid droplets stained with Bodipy and UCP1 protein [6]
1 | Cc1cccc(-c2n[nH]cc2-c2ccc3ncccc3n2)n1 [ALK5 Inhibitor II, 2-(3-(6-Methylpyridin-2-yl)-1H-pyrazol-4-yl)-1,5-naphthyridine] | converted to brown adipocytes strongly expressing UCP1 gene | the highest expression of UCP1 gene was induced | High expression of UCP1 gene was also induced | the staining intensity of UCP1 protein was high and many staining positive cells were present | converted to brown adipocytes highly expressing UCP1 protein | High expression of UCP1 protein was also detected | induced into brown adipocytes expressing UCP1 gene, CIDEA gene and KCNK3 gene | induced into brown adipocytes expressing UCP1 gene, CIDEA gene and KCNK3 gene | induced into brown adipocytes expressing UCP1 gene, CIDEA gene and KCNK3 gene | more strongly induced |  |  | 
2 | NC(=O)c1ccc(-c2nc(-c3ccc4c(c3)OCCO4)c(-c3ccccn3)[nH]2)cc1 [D4476, 4-[4-(2,3-dihydro-1,4-benzodioxin-6-yl)-5-(2-pyridlnyl-)1H-imidazol-2-yl]-benzamide] |  |  |  |  |  |  |  |  |  |  | induced to brown adipocytes that express mRNA of UCP1 gene | brown adipocyte-like responsiveness | converted to brown adipocytes expressing lipid droplets stained with Bodipy and UCP1 protein
